Source: patent publication US11077120B2, “Prostaglandin receptor EP2 antagonists, derivatives, compositions, and uses related thereto” (Emory University, priority 2014, dated 2021)
Values after ≈ are worked out from the molar mass of the structure shown. Read-outs that look alike come from different tables or passages of the source.

Assays:
[1] = aqueous solubility by nephelometry; conditions: for aqueous solubility (in words): PBS buffer (pH 7.4) with 1% DMSO, nephelometry
[2] = pH 7.4
[3] = target: T1, human EP2 receptors (Homo sapiens, UniProt P43116); assay: cell-based cAMP TR-FRET assay, rightward shift of PGE2 concentration response curve (Schild KB), EP2; conditions: for mechanism of antagonism of EP2: Schild regression analysis
T1 construct: expressed in transfected cells
T1 sequence (P43116 whole entry): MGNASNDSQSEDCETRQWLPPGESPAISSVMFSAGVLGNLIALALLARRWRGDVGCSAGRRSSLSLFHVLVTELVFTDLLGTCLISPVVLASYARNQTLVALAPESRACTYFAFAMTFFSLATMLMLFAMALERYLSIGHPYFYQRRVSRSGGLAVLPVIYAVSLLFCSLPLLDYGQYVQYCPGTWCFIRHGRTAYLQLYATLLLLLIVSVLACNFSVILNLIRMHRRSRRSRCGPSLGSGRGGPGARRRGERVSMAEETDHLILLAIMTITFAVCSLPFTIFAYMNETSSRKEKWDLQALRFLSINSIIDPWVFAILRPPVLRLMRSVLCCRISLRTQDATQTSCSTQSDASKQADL
Experimental: KB value indicates the antagonist concentration required for a twofold rightward shift in the PGE2 dose-response curve. Thus, a lower KB value indicates a higher inhibitory potency.
(§1) The synthesis was carried out starting from commercially available 2-methyl indole or 2-trifluoromethyl indoles (11a-c), which on treatment with bromoacetonitrile provided intermediates (12a-c), which then were subjected to lithium aluminum hydride to reduce cyanide to amines. […] Synthesized derivatives were tested by using a cAMP-derived TR-FRET assay, at single concentration (1 μM) to observe a rightward shift of PGE2 (an EP2 agonist) concentration response curve in a C6G cell line that overexpresses human EP2 receptors.
A lower KB value indicates a higher inhibitory potency.
(§2) Intracellular cAMP was measured with a cell-based homogeneous time-resolved fluorescence resonance energy transfer (TR-FRET) method (Cisbio Bioassays). […] Endogenous cAMP produced by cells competes with labeled cAMP for binding to the cAMP antibody and thus reduces the FRET signal. Cells stably expressing human DP1, EP2, EP4, or IP receptors were seeded into 384-well plates in 30 μl complete medium (4,000 cells/well) and grown overnight. The medium was carefully withdrawn and 10 μl Hanks' Buffered Salt Solution (HBSS) (Hyclone) containing 20 μM rolipram was added into the wells to block phosphodiesterases. The cells were incubated at room temperature for 0.5-1 h and then treated with vehicle or test compound for 10 min before addition of increasing concentrations of appropriate agonist: BW245C for DP1, PGE2 for EP2 and EP4, or iloprost for IP. The cells were incubated at room temperature for 40 min, then lysed in 10 μl lysis buffer containing the FRET acceptor cAMP-d2 and 1 min later another 10 μl lysis buffer with anti-cAMP-Cryptate was added. After 60-90 min incubation at room temperature, the FRET signal was measured by an Envision 2103 Multilabel Plate Reader (PerkinElmer Life Sciences) with a laser excitation at 337 nm and dual emissions at 665 nm and 590 nm for d2 and Cryptate (50 s delay), respectively. The FRET signal was expressed as: F665/F590×10^4.

[4] = mouse, in vivo
[5] = target: T2, human IP receptors (Homo sapiens, UniProt P43119); assay: cell-based cAMP TR-FRET assay, IP (agonist iloprost); conditions: Table 2; for potency estimated from few doses: extrapolated Schild KB from single concentration of 10 μM
T2 construct: expressed in transfected cells
T2 sequence (P43119 whole entry): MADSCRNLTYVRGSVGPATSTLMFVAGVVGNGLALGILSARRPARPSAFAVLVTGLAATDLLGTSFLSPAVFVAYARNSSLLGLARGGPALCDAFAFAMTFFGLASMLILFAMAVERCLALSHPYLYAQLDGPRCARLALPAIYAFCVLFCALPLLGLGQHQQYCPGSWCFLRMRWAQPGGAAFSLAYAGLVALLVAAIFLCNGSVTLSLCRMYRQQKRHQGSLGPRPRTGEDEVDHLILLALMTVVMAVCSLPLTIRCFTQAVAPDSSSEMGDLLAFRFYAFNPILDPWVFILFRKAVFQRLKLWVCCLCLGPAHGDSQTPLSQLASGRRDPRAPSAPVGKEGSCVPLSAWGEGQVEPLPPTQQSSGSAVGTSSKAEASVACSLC
Experimental: (§3) These derivatives were selected for testing against EP4 and IP receptors. Cell lines were created that overexpress EP4 receptors, or IP receptors on C6-glioma cells. A cAMP-derived TR-FRET assay was developed using agonists PGE2 (for EP4) and iloprost (for IP), similar to EP2 assay.
as §2

[6] = target: T3, human DP1 receptors (Homo sapiens, UniProt Q13258); assay: cell-based cAMP TR-FRET assay, DP1 (agonist BW245C); conditions: Table 2; for Kb: read-out: KB DP1
T3 construct: expressed in transfected cells
T3 sequence (Q13258 1-359): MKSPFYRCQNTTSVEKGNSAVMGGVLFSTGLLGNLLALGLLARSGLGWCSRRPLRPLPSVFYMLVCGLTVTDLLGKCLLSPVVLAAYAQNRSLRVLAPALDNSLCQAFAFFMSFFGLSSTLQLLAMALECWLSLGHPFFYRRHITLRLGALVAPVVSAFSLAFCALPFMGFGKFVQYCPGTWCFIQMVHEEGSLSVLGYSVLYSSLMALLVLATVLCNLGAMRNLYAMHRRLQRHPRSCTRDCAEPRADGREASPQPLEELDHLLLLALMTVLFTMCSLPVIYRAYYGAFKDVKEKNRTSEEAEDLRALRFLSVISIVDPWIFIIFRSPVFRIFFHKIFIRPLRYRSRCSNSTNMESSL
Experimental: as §1
as §2, with “After 60-90 min incubation at room temperature, the FRET signal was measured by an Envision 2103 Multilabel Plate Reader (PerkinElmer Life Sciences) with a laser excitation at 337 nm and dual emissions at 665 nm and 590 nm for d2 and Cryptate (50 s delay), respectively.” left out

[7] = target: T4, human EP4 receptors (Homo sapiens, UniProt P35408); assay: cell-based cAMP TR-FRET assay, EP4 (agonist PGE2); conditions: for potency estimated from few doses / Selective Index EP4/EP2: Table 2; for potency estimated from few doses: extrapolated Schild KB from single concentration of 10 μM
T4 construct: expressed in transfected cells
T4 sequence (P35408 whole entry): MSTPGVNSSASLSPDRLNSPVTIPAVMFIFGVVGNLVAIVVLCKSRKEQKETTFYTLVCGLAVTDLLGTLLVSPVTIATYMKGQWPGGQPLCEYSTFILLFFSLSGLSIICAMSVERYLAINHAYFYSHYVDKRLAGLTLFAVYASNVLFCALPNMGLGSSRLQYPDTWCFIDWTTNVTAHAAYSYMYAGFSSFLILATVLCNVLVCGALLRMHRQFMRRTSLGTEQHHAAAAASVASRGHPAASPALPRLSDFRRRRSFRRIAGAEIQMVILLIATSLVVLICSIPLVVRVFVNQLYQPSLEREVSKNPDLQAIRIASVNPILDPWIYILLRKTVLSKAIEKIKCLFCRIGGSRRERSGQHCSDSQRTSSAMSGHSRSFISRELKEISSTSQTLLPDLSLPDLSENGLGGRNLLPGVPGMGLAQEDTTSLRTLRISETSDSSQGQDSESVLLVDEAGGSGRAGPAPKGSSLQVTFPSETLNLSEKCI
Experimental: as §3, §2

[8] = test system: C6-glioma cells
Experimental: (§4) CC50 are average one measurement run in triplicate.
(§5) Several of compounds were examined against EP4 and IP receptors at single concentration of 10 μM.

[9] = physchem; conditions: pH 7.4, aqueous buffer, kinetic from dmso stock
[10] = in vitro; conditions: rat
Experimental: as §4, §5

[11] = liver microsomal stability, mouse
[12] = liver microsomal stability, human
[13] = Table 3, PBS buffer (pH 7.4) with 1% DMSO by nephelometry
[14] = Table 1, Schild KB from single antagonist concentration 1 μM, average of 2-3 measurements in duplicate, read-out: EP2 KB
[15] = single concentration values, read-out: EP2 potency (Schild KB)

Cc1cc2ccccc2n1CCNC(=O)/C=C/c1ccc(OCCCO)cc1 [Compound 16e]
Solubility [1, 13]: 66 µM (≈ 25 µg/mL)

Cc1cc2ccccc2n1CCNC(=O)/C=C/c1ccc(OCCO)c(OCCO)c1 [Compound 16a, (E)-3-(3,4-bis(2-hydroxyethoxy)phenyl)-N-(2-(2-methyl-1H-indol-1-yl)ethyl)acrylamide]
Solubility [2]: 153 µM (≈ 64.9 µg/mL) | mechanism of antagonism of EP2 [3]: competitive | C-max ([4]; ip, 5 mg/kg): 1510 ± 142 ng/mL | T1/2 (plasma) ([4]; ip, 5 mg/kg): 1.49 h | C-max ([4]; po, 10 mg/kg): 128 ± 23 ng/mL | T1/2 (plasma) ([4]; po, 10 mg/kg): 1.44 h

COc1cc(/C=C/C(=O)NCCn2c(CNC3CCN(C)CC3)cc3ccccc32)cc(OC)c1OC [Compound 15m]
Solubility [1, 13]: 180 µM (≈ 91.2 µg/mL)

Cc1cc2ccccc2n1CCNC(=O)c1ccc(N2CCC(C(=O)O)CC2)cc1 [Compound 7n]
aqueous solubility (in words) [1]: high aqueous solubility | Kb [3, 14]: 0.0897 µM

Cc1cc2ccccc2n1CCNC(=O)c1ccc(N(C)C)cc1 [Compound 6e, 4-(Dimethylamino)-N-(2-(2-methyl-1H-indol-1-yl)ethyl)benzamide]
potency estimated from few doses [5]: 4.7 µM | Kb [6]: 6.43 µM | potency estimated from few doses [7]: 51 µM | CC50 ([8]; rat): 310 µM | Kb [3, 14]: 0.0098 µM

O=C(/C=C/c1ccc(OCCO)c(OCCO)c1)NCCn1c(C(F)(F)F)cc2ccccc21 [Compound 16b]
Solubility [2]: 67 µM (≈ 32.1 µg/mL) | Solubility [9]: 67 µM (≈ 32.1 µg/mL)

Cc1[nH]c2ccccc2c1CCNC(=O)/C=C/c1ccc(OCCO)cc1 [Compound 16d]
CC50 [10]: 81.7 µM | Solubility ([1]; PBS buffer, pH 7.4, aqueous buffer, kinetic from dmso stock): 68 µM (≈ 24.8 µg/mL) | Kb ([3]; Table 3, Schild KB from single concentration 1 μM, read-out: EP2 KB): 0.0136 µM | Kb ([3]; Table 4, read-out: KB EP2): 0.0136 µM | Kb [3, 15]: 0.0114 to 0.0136 µM

Cc1cc2ccccc2n1CCNC(=O)c1ccc(-c2nnn[nH]2)cc1 [Compound 7z]
potency estimated from few doses [5]: > 10000 µM | CC50 [10]: > 300 µM | potency estimated from few doses [7]: > 10000 µM | aqueous solubility (in words) [1]: high aqueous solubility

COc1cc(/C=C/C(=O)NCCn2c(C)cc3ccccc32)cc(OC)c1OC [Compound 15a]
% of Parent Compound Remaining at 60 min vs. T = 0 min, Mouse Liver Microsomes ([11]; 1 μM): 0.2% | % of Parent Compound Remaining at 60 min vs. T = 0 min, Mouse Liver Microsomes ([11]; 10 μM): 4.8% | % remaining at 60 minutes in mouse liver microsomes ([11]; at 1 μM concentration): 0.2% | Solubility [1, 13]: 45 µM (≈ 17.8 µg/mL) | CC50 ([8]; read-out: Cytotoxicity (CC50), Table 4): 172 µM | % of Parent Compound Remaining at 60 min vs. T = 0 min, Human Liver Microsomes ([12]; 1 μM): 0.1% | % of Parent Compound Remaining at 60 min vs. T = 0 min, Human Liver Microsomes ([12]; 10 μM): 10.6%

Cc1cc2ccccc2n1CCNC(=O)c1ccc(N2CCOCC2)c(F)c1 [Compound 7t]
Selective Index (IP/EP2) [5]: 217 | potency estimated from few doses [5]: 5.6 µM | CC50 [10]: > 500 µM | Selective Index (DP1/EP2) [6]: 85 | selectivity over EP4 ([7]; EP2 over EP4): ~600 fold | Selective Index EP4/EP2 [7]: 565 | potency estimated from few doses [7]: 14.5 µM | Therapeutic Index (CC50/EP2 KB) ([8]; rat): >19,450

CCN(CC)c1ccc(C(=O)NCCc2c(C)[nH]c3ccccc23)cc1 [Compound 9a, 4-(Diethylamino)-N-(2-(2-methyl-1H-indol-3-yl)ethyl)benzamide]
potency estimated from few doses [5]: > 10000 µM | CC50 [10]: > 500 µM | Selective Index (DP1/EP2) [6]: 1374 | Kb [6]: 9.48 µM | Selective Index EP4/EP2 [7]: 6,945 | potency estimated from few doses [7]: 48 µM | Therapeutic Index (CC50/EP2 KB) ([8]; rat): >72,460 | mechanism of antagonism of EP2 [3]: competitive | Kb [3, 14]: 0.0069 µM | Kb [3, 15]: ~0.01 µM

COc1cc(/C=C/C(=O)NCCn2c(CN3CCOCC3)cc3ccccc32)cc(OC)c1OC [Compound 15l]
Solubility [1, 13]: 91 µM (≈ 43.6 µg/mL)

Cc1[nH]c2ccccc2c1CCNC(=O)/C=C/c1ccc(OCCO)c(OCCO)c1 [Compound 16c, (E)-3-(3,4-bis(2-hydroxyethoxy)phenyl)-N-(2-(2-methyl-1H-indol-3-yl)ethyl)acrylamide]
% of Parent Compound Remaining at 60 min vs. T = 0 min, Mouse Liver Microsomes ([11]; 1 μM): 7.1% | % of Parent Compound Remaining at 60 min vs. T = 0 min, Mouse Liver Microsomes ([11]; 10 μM): 19.3% | aqueous solubility (in words) [1]: very soluble | Solubility [1, 13]: 235 µM (≈ 99.8 µg/mL) | % of Parent Compound Remaining at 60 min vs. T = 0 min, Human Liver Microsomes ([12]; 1 μM): 58.5% | % of Parent Compound Remaining at 60 min vs. T = 0 min, Human Liver Microsomes ([12]; 10 μM): 70.4%
